According to US10562848B2, “Inhibitors of TNF superfamily costimulatory interactions and methods for uses of the same” (UNIVERSITY OF MIAMI, priority 2015, dated 2020):
pIC50: −log10 of the molar value. Like-named read-outs stand apart in the source and are kept apart here.

How the values were obtained:
[1] = biological target: T1, human CD40-CD40L (Homo sapiens, UniProt P29965); assay: Cell-free ELISA-type CD40-CD40L binding inhibition assay
T1 construct: purchased Enzo Life Sciences (San Diego, Calif.)
T1 sequence (P29965 116-261 limits assumed): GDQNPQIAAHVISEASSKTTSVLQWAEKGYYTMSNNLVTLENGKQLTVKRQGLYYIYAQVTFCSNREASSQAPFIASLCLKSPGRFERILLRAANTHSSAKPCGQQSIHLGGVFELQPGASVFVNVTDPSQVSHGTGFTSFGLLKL
Method: Compounds according to the disclosure were assessed for their ability to inhibit the binding of tagged ligands to plate-bound receptors using ELISA-type 96-well plate-based cell-free assays as described in the literature (see Margolles-Clark et al, J Mol Med 87:1133-1143 (2009); Margolles-Clark et al., Chem Biol Drug Des 76:305-313 (2010); Song et al., Br J Pharmacol 171:4955-4969 (2014); and Ganesan et al., Biochem Pharmacol 81:810-818 (2011)).
Recombinant receptors (hCD40:Fc, TNF-R1:Fc) and tagged ligands (hCD154, MegaCD40L, and TNF-α), were obtained from Enzo Life Sciences (San Diego, Calif.). Microtiter plates (Nunc F Maxisorp; 96-well) were coated overnight at 4° C. with 100 μL/well of Fc chimeric receptors diluted in PBS 7.2. This was followed by blocking with 200 μL/well of blocking solution (PBS 7.2, 0.05% Tween-20, 1% BSA) for 1 hour at room temperature. […] Either anti-FLAG-HRP or streptavidin-HRP conjugate was used to detect the bound FLAG-tagged or biotinylated ligand, respectively. Plates were washed three times before the addition of 120 μL/well of HRP substrate TMB (3, 3′, 5, 5′-tetramethylbenzidine) and kept in the dark for 15-30 min. The reaction was stopped using 30 μL 1M H2SO4, and the absorbance was read at 450 nm. Stock solutions of compounds at 10 mM in DMSO were used.
Typical concentrations used were as follows—receptors: 0.3 μg/mL for CD40, TNF-R1, and RANK; 0.6 μg/mL for BAFF-R, OX40, and 4-1BB; and 2 μg/mL for EGF-R-ligands: 0.02 μg/mL for CD40L, TNFα, and RANKL; 0.2 μg/ml for BAFF, OX40L, 4-1BBL; and 0.3 μg/mL for EGF. Assays were done in duplicate or triplicate per plate and repeated at least three times; the averaged data were normalized and used for data fitting and analysis. Binding data were fitted using the standard log inhibitor versus response model in GraphPad Prism to determine the corresponding IC50 values.

[2] = tested on: CD40L-induced NF-κB activation in CD40 sensor cells (HEK Blue); assay: Inhibition of CD40L-induced NF-κB activation in CD40 sensor cells (HEK-Blue); type: cell-based, human; details: for pIC50: Homo sapiens, CD40L 20 ng/mL, 18 h
Description: Activities of the compounds of the disclosure were confirmed in cell-based assays. As a first example, TNF-R1 and CD40 expressing sensor cells (HEK-Blue; InvivoGen, San Diego, Calif.) were used as described in the literature (see Song et al., Br J Pharmacol 171:4955-4969 (2014) and Cechin et al., Steroids 85:36-43 (2014)).
Cells were maintained in DMEM at 80% confluence for each experiment. Cells were trypsinized and re-suspended in the same medium with 1% FBS and seeded on 96-well microtiter plates at a density of 1×10^5 cells/well in the absence and presence of various concentrations of compounds diluted in the same media. For ligand mediated stimulation, final concentrations of recombinant human TNFα (2 ng/mL) and CD40L (20 ng/mL) were maintained in the wells for this purpose. After 18-hour incubation at 37° C., 20 μL supernatant of each well were taken and added to another 96-well microtiter plate containing 180 μL/well of QUANTI-Blue (InvivoGen, CA). The level of SEAP was determined after 30-minute incubation at 37° C. by reading at 625 nm using a spectrophotometer. […] Data are average±SD (normalized to CD40L-activated cells alone) for n=4 independent experiments with duplicates for each condition.

[3] = tested on: CD40L-induced proliferation of human CD19+ B cells; assay: Inhibition of CD40L-induced human CD19+ B-cell proliferation (BrdU); type: cell-based; details: for pIC50: B-cell
Method: Because CD40 stimulation is an important signal for B cell proliferation, soluble CD40L can concentration-dependently induce the proliferation of human B cells.
Inhibition of cell proliferation was determined in freshly isolated human CD19^+ B cells using the colorimetric cell proliferation ELISA BrdU kit from Roche Applied Science (Indianapolis, Ind.). B cells were isolated from the PBMC as follows. Briefly, cells were washed three times with medium (RPMI 1640) and incubated for 20 min at 4° C. with 20 μL/10^7 cells of anti-CD19 Microbeads (Miltenyi Biotech, Bergisch Gladbach, Germany), according to the MiniMacs protocol (Miltenyi Biotech). Cells were then purified using magnetic columns. […] Cells were cultured in 96 wells plates (100 μL/well) at a cell density of 2×10^5 cells/mL in IMDM medium supplemented with 5% FBS, 100 U/mL penicillin, streptomycin 100 μg/mL, insulin-transferrin-selenium-G (all materials from Invitrogen, San Diego, Calif.) and 10 […] (R&D Systems). […] After 48 h, BrdU labeling solution was added as recommended, and cells were cultivated for another 48 h. Detection of incorporated BrdU was carried out following the instructions of the ELISA BrdU kit.
Data are average±SD for n=3 independent experiments with triplicates for each condition using a standard BrdU assay (Roche).

[4] = IC50, inhibition of the CD40-CD40L interaction, cell-free binding, n=3 independent experiments

| SMILES | pIC50 [1, 4] | pIC50 ([1]; IC50 CD40, Table 2) | inhibition of human CD40-CD40L binding (in words) ([1]; cell-free binding) | inhibition of CD40L-induced NF-κB activation (in words) [2] | pIC50 [2] | inhibition of CD40L-induced human CD19+ B-cell proliferation (in words) [3] | pIC50 ([1]; Table 2, read-out: IC50 CD40) | pIC50 ([1]; cell-free binding, n=3 independent experiments, read-out: IC50, inhibition of the CD40-CD40L interaction) | pIC50 [3] |
| --- | --- | --- | --- | --- | --- | --- | --- | --- | --- |
| O=C(Nc1ccc(-c2ccc(C(=O)Nc3cccc4cccc(S(=O)(=O)O)c34)cc2)cc1)c1ccc([N+](=O)[O-])cc1 [Compound 21041, 8-[(4′-[4-nitrobenzamido]biphenyl-4-yl-carbonyl)amino]naphthalene-1-sulfonic acid] | 6.51 | 6.52 | concentration-dependent inhibition | concentration-dependent inhibition | 5.00 | concentration-dependent inhibition |  |  |  |
| COC(=O)c1ccc(C(=O)Nc2ccc(-c3ccc(C(=O)Nc4cccc5cccc(S(=O)(=O)O)c45)cc3)cc2)cc1 [Compound 21045] |  |  | concentration-dependent inhibition | concentration-dependent inhibition | 4.77 | concentration-dependent inhibition | 7.00 | 6.85 | ~4.70 |
| O=C(Nc1ccc(-c2ccc(C(=O)Nc3ccc(C(=O)O)c4ccccc34)cc2)cc1)c1ccc([N+](=O)[O-])cc1 [Compound 25441] | 6.44 |  | concentration-dependent inhibition | concentration-dependent inhibition | 5.05 | concentration-dependent inhibition | 6.40 |  | ~4.70 |
